Measurements taken from patent US10080366B2, “Agent for increasing sugar content in fruit” (RIKEN, priority 2012, dated 2018).
Like-named read-outs stand apart in the source and are kept apart here.

Assays:
Mikan = settings: 6 days after treatment
[1] = tested on: fruit of grape (variety: Red Globe); settings: for Sugar content (%) May 16: date of application; for mass of fruit as % of the mass on the date of application: 17 days later; for Sugar content (%) Jun. 2 Calculated value: calculated from decrease in mass
Experimental: The mass of fruit of grape (variety: Red Globe) purchased on the market was measured. Then, the prepared agents for increasing a sugar content in a fruit were applied by spraying to the fruit of grape, which was then allowed to stand in an air-conditioned greenhouse (temperature: 25° C.). With the mass of the grape on the date of application being 100 g, the mass of the grape after the application was measured over time (date of application: May 16, 2011; dates of test: May 19, May 23, May 27, May 30, and Jun. 2, 2011). Next, on the assumption that the change in mass of the fruit was entirely due to the change in water content, the calculated value of the sugar content was determined from the amount of decrease in mass and the sugar content on the date […] of the application (calculated as follows: “the sugar content (calculated value)=the sugar content (%) on the date of application×the mass (g) on the date of application/the mass (g) on the date of measurement”). In addition, as a control, the mass of untreated grape was measured in the same manner. The results are shown in Tables 7 and 8 and FIGS. 12 to 14.

Tomato = settings: 6 days after treatment
[2] = tested on: clusters of grape (variety: Crimson); test: Estimated transpiration ratio of grape clusters (Example 9); type: in vivo; settings: 10 g/L; 8 days after treatment
[3] = tested on: fruit of grape (variety: Red Globe)
Experimental: An agent for increasing a sugar content in a fruit (containing Sorbon T-20 as a spreader/sticker at a final concentration of 200 μL/L) diluted with water to have a potassium hydrogen carbonate concentration of 10 g/L was prepared. The mass of fruit of grape (variety: Red Globe) purchased on the market was measured. Then, the prepared agent for increasing a sugar content in a fruit was applied by spraying to the fruit of grape. Then, the fruit of grape was allowed to stand in an air-conditioned greenhouse (temperature: 25° C.), and the mass was measured over time (date of application: Apr. 27, 2011; dates of test: May 2, 2011, May 6, 2011, May 9, 2011, May 11, 2011, May 13, 2011, and May 16, 2011). In addition, as a control, the mass of untreated grape was measured on each date of measurement in the same manner.
On the basis of the measured mass, the estimated amount (cumulative value) of transpiration and the estimated amount of transpiration per day were calculated. The results are shown in Tables 5 and 6 and FIGS. 10 and 11.
Note that the vertical axis in FIG. 10 represents the mass (g) of the fruit of grape on each of the dates of measurement per 100 g of the fruit of grape on the date of application, and the vertical axis in FIG. 11 represents the estimated amount (g) of transpiration on each of the dates of measurement per 100 g of the fruit of grape on the date of application. The estimated amount (g) of transpiration on each of the dates of measurement per 100 g of the fruit of grape on the date of application=(the mass (g) of the fruit of grape on the date of application−the mass (g) of the fruit of grape on the date of measurement)/the mass of the fruit of grape on the date of application×100

[4] = tested on: harvested fruit of grape (variety: Barikan); settings: for Sugar content (%) 8 days later, actually measured value / Mass (g) 6 days later (Jun. 8) / Mass (g) 8 days later (Jun. 10): 25° C.; for Mass (g) 6 days later (Jun. 8) / Mass (g) 8 days later (Jun. 10): mass 100 g on date of application; for Sugar content (%) 8 days later, calculated value: calculated from decrease in mass; for Sugar content (%) on date of application (Jun. 2): before application
Experimental: The fruit of grape was maintained in an air-conditioned greenhouse (temperature: 25° C.), and measured for the mass over time. The sugar content of the fruit was measured before the application and 8 days after the application with a sugar content meter. Next, on the assumption that the change in the mass of the fruit was entirely due to the change in water content, calculated values of the amount of decrease in mass and the sugar content on the date (June 2) of the application were determined […] by using the following calculation formula. (Calculated as follows: the sugar content (%) calculated value))=the sugar content (%) before application×the mass (g) on the date of application/the mass (g) on the date of measurement))

[5] = 10 g/L, May 19, 100 g on May 16
[6] = approximately 3 weeks later (19 days later)

Compound: O=C([O-])[O-].[K+].[K+] [Potassium carbonate, potassium carbonate]
- Ratio (%) of decrease in body weight of fruit (Mikan; dilution ratio 50 (20 g/L)): 12.0%
- Ratio (%) of decrease in body weight of fruit (Mikan; dilution ratio 100 (10 g/L)): 12.4%
- Sugar content (%) May 16 ([1]; 5 g/L group): 17.6%
- mass of fruit as % of the mass on the date of application ([1]; 5 g/L): 66.6%
- mass (g) of the fruit ([1]; 5 g/L, Jun. 2): 66.6 g
- mass (g) of the fruit ([1]; 5 g/L, May 19, 100 g on May 16): 90.8 g
- mass (g) of the fruit ([1]; 5 g/L, May 23): 84.5 g
- mass (g) of the fruit ([1]; 5 g/L, May 27): 77 g
- mass (g) of the fruit ([1]; 5 g/L, May 30): 72.1 g
- Sugar content (%) Jun. 2 Calculated value ([1]; 5 g/L): 26.5%
- Sugar content (%) May 16 ([1]; 10 g/L group): 18.2%
- mass of fruit as % of the mass on the date of application ([1]; 10 g/L): 65%
- mass (g) of the fruit ([1]; 10 g/L, Jun. 2): 65 g
- mass (g) of the fruit [1, 5]: 90.6 g
- mass (g) of the fruit ([1]; 10 g/L, May 23): 83.9 g
- mass (g) of the fruit ([1]; 10 g/L, May 27): 75.9 g
- mass (g) of the fruit ([1]; 10 g/L, May 30): 70.6 g
- Sugar content (%) Jun. 2 Calculated value ([1]; 10 g/L): 28%
- Ratio (%) of decrease in body weight of fruit (Tomato; dilution ratio 50 (20 g/L)): 21.1%
- Ratio (%) of decrease in body weight of fruit (Tomato; dilution ratio 100 (10 g/L)): 18.0%
- Estimated transpiration ratio (%) Average [2]: 33%
- Estimated transpiration ratio (%) First [2]: 35%
- Estimated transpiration ratio (%) Second [2]: 31%
- sugar concentration in the fruit (suggested) ([3]; 2 weeks later, assuming 20% on April 27, 20/41.4): exceeded 48%
- Estimated amount (g) of transpiration per 100 g of fruit on date of application ([3]; 5 days later): 18.8 g
- Mass (g) of fruit per 100 g of fruit on date of application ([3]; 5 days later (applied Apr. 27)): 81.2 g
- Estimated amount (g) of transpiration per 100 g of fruit on date of application ([3]; 9 days later): 31.5 g
- Mass (g) of fruit per 100 g of fruit on date of application ([3]; 9 days later): 68.5 g
- Estimated amount (g) of transpiration per 100 g of fruit on date of application ([3]; 12 days later): 40 g
- Mass (g) of fruit per 100 g of fruit on date of application ([3]; 12 days later): 60 g
- Estimated amount (g) of transpiration per 100 g of fruit on date of application ([3]; 14 days later): 45.8 g
- Mass (g) of fruit per 100 g of fruit on date of application ([3]; 14 days later): 54.2 g
- Estimated amount (g) of transpiration per 100 g of fruit on date of application ([3]; 16 days later): 51.3 g
- Mass (g) of fruit per 100 g of fruit on date of application ([3]; 16 days later): 48.7 g
- Estimated amount (g) of transpiration per 100 g of fruit on date of application ([3]; 19 days later): 58.6 g
- Mass (g) of fruit per 100 g of fruit on date of application ([3]; 19 days later): 41.4 g
- mass as % of the mass on the date of application [3, 6]: 41.4%
- ratio of transpiration of the fruit [3, 6]: 58.6%
- mass relative to mass on the date of application ([3]; in 2 weeks): approximately ½
- estimated amount of transpiration relative to untreated fruit ([3]; in vivo): two times or more of that of the untreated fruit
- decrease of mass of fruit in 8 days (June 2 to June 10) ([4]; 10 g/L): 25.56%
- Sugar content (%) 8 days later, actually measured value ([4]; 10 g/L): 24.5%
- Mass (g) 6 days later (Jun. 8) ([4]; 10 g/L): 80.7 g
- Mass (g) 8 days later (Jun. 10) ([4]; 10 g/L): 74.5 g
- action to increase the sugar content in the fruit (comparison) ([4]; 10 g/L, 8 days): the best
- Sugar content (%) 8 days later, calculated value ([4]; 10 g/L): 24.2%
- Sugar content (%) on date of application (Jun. 2) [4]: 18.0%
- Sugar content (%) on date of application (Jun. 2) ([4]; listed as potassium carbonate): 18%

Compound: O=P([O-])([O-])OP(=O)([O-])[O-].[K+].[K+].[K+].[K+] [Tetrapotassium pyrophosphate, tetrapotassium pyrophosphate]
- Ratio (%) of decrease in body weight of fruit (Mikan; dilution ratio 100 (10 g/L)): 10.4%
- ratio of decrease in mass per day (comparison) ([1]; 10 g/L): highest ratio of decrease in mass per day
- Sugar content (%) May 16 ([1]; 10 g/L group): 16.6%
- mass of fruit as % of the mass on the date of application ([1]; 10 g/L): 57.3%
- mass (g) of the fruit ([1]; 10 g/L, Jun. 2): 57.3 g
- mass (g) of the fruit [1, 5]: 86.7 g
- mass (g) of the fruit ([1]; 10 g/L, May 23): 78.9 g
- mass (g) of the fruit ([1]; 10 g/L, May 27): 69.8 g
- mass (g) of the fruit ([1]; 10 g/L, May 30): 63.8 g
- Sugar content (%) Jun. 2 Calculated value ([1]; 10 g/L): 29%
- Ratio (%) of decrease in body weight of fruit (Tomato; dilution ratio 100 (10 g/L)): 13.8%
- Estimated transpiration ratio (%) Average [2]: 32%
- Estimated transpiration ratio (%) First [2]: 32%
- decrease of mass of fruit in 8 days (June 2 to June 10) ([4]; 10 g/L): 19.1%
- Sugar content (%) 8 days later, actually measured value ([4]; 10 g/L): 21.5%
- Mass (g) 6 days later (Jun. 8) ([4]; 10 g/L): 85.7 g
- Mass (g) 8 days later (Jun. 10) ([4]; 10 g/L): 80.9 g
- Sugar content (%) 8 days later, calculated value ([4]; 10 g/L): 21.6%
- Sugar content (%) on date of application (Jun. 2) [4]: 17.5%
